Measurements from patent EP0837870B1, “SYNTHETIC MODIFICATION TO SPINOSYN COMPOUNDS” (Dow AgroSciences LLC, priority 1995, dated 1997).

How the values were obtained:
Format in all cases: in vivo
[1] = system: tobacco budworm (Heliothis virescens); test: Activity against tobacco budworm (TBW), sprayed diet cups with eggs; conditions: for mortality at 400 µg/mL: Heliothis virescens, 144 h
Experimental: (§1) In conducting evaluations of insecticidal activity, each test compound was formulated as a 400 ppm solution, and this solution was then diluted with water to give lesser concentrations. The 400 ppm solution was prepared by combining 19.2 mL of .05% solution of Tween 20 (polyoxyethylene (20) sorbitan monolaurate) in water with a solution of 8 mg of the compound in .8 mL of acetone/EtOH (9/1).
Activity against tobacco budworm (Heliothis virescens) was evaluated as follows. A general purpose lepidoptera artificial diet was diluted to half strength with a 5% non nutritive agar. 8 mL of this diet material was dispensed into each one ounce diet cup. One hour prior to treatment 18 to 20 eggs were dispensed onto the diet surface. The cups were then sprayed with formulated material through a flat-fan nozzle. […] Treated cups were air dried prior to sealing with plastic caps. The cups were held for 6 days at room temperature. Activity was then rated based on the total number of live and dead larvae, and on the size of live larvae.

[2] = system: two spotted spider mite (Tetranychus urticae); test: Activity against two spotted spider mite (TSSM), sprayed infested squash plants; conditions: RATE 400 (ppm), three days after treatment; for % MORTALITY: 4320 min; for mortality at 400 µg/mL: Tetranychus urticae, 72 h
Experimental: as §1
Activity against cotton aphid (Aphis gossypii) and two spotted spider mite (Tetranychus urticae) was evaluated as follows. Golden crookneck squash plants were grown to the expanded cotyledon stage (about 6 to 8 days). The plants were infested with cotton aphids and two spotted spider mites 16 to 24 hours before application of the test material by transfer of infested foliage cut from a stock colony. Immediately prior to spray application of the test material the transfer foliage is removed from the squash plants. The test is run using concentrations of 400 ppm and 50 ppm. The plants are sprayed with test solution using an atomizing sprayer at 17 psi. Both surfaces of the leaves are covered until runoff, and then allowed to dry. Activity of each compound was determined three days after treatment. Activity was rated as a percent based on the mites/aphids present in plants sprayed with solvent alone.

[3] = system: Phormia regina (blow fly); test: Blow fly larvae test, serum-saturated dental wick; conditions: 24 and 48 hours, which one is reported is not stated; for Percentage of LBF killed at 100 ppm: 100 ppm in bovine serum; for Percentage of LBF killed at 10 ppm: 10 ppm in bovine serum
Experimental: (§2) The compound to be evaluated was dissolved in 1 part acetone/1 part ethanol to provide a stock solution of the compound at a concentration of 5,000 ppm; this solution was shaken for 15 minutes on a sonicator. Portions of the stock solution were placed in 15 ml test tubes, and portions of bovine serum were added to provide the desired dilution of the test compound. A dental wick was placed in each test tube and the serum allowed to saturate the wick.
For the blow fly test, approximately 20 blow fly larvae were placed onto the top center of the saturated dental wick, and the test tube was plugged with cotton and incubated at 27°C and 70% humidity for 24 and 48 hours. Larval mortality counts were then made, and adjusted for any mortality in the vehicle control, to determine percent efficacy against blow fly.

[4] = system: Stomoxys calcitrans (stable fly); test: Adult stable fly test, serum-saturated dental wick; conditions: readings at 24 and 48 hours, which one is reported is not stated; for Percentage of ASF killed at 10 ppm: 10 ppm in bovine serum; for Percentage of ASF killed at 100 ppm: 100 ppm in bovine serum
Experimental: as §2
For the adult stable fly test, the saturated wick was placed on a filter paper in a petri dish, and approximately 10 chilled live, hungry stable flies were placed on the center of the dish bottom. The dish was covered and allowed to incubate at 27°C and 60% relative humidity for 48 hours. Mortality readings were made at each of 24 and 48 hours, and adjusted for any mortality in the vehicle control to determine percent efficacy against adult stable fly.

[5] = system: beet armyworm (Spodoptera exiqua); test: Activity against beet armyworm (BAW), sprayed diet cups with eggs
Experimental: as §1
Activity against beet armyworm (Spodoptera exiqua) was evaluated as follows. The test is run using concentrations of 400 ppm and 50 ppm. A general purpose lepidoptera artificial diet was diluted to half strength with a 5% non nutritive agar. 8 mL of this diet material was dispensed into one ounce diet cups. One hour prior to treatment, 35 to 40 eggs were dispensed onto the diet surface. The cups were then sprayed with formulated material through a flat-fan nozzle. Treated cups were air dried prior to sealing with plastic caps. The cups were held for 6 days at room temperature. Activity was then rated based on the total number of live and dead larvae, and on the size of live larvae.

[6] = system: peanut root knot nematode (Meloidogyne arenaria); test: Activity against peanut root knot nematode, sprayed sand with cucumber seeds; conditions: NEMA, RATE 400 (ppm), 10 to 12 days
Experimental: as §1
Activity against peanut root knot nematode (Meloidogyne arenaria) was evaluated as follows. Five untreated cucumber seeds are placed into the bottom of a clear one ounce cup, 20 g of clean white sand is added, and the cups were sprayed while rotating on a pedestal allowing 1.0 mL of a 400 ppm solution to be deposited on the sand. To each cup was dispensed 2.5 to 3.0 mL of deionized water containing 300 to 500 nematodes. The cups were held for 10 to 12 days in an environmental growth chamber at a temperature of 76 to 85°F and ambient humidity of 50 to 60%. After 10 to 12 days the cups were evaluated by inverting the cup and observing nematode mortality and feeding damage to the cucumber plants.

[7] = RATE 64 (unit not given), 8640 min

Row | Compound | % MORTALITY ([1]; RATE 400 (ppm), 6 days) | Percentage of ASF killed at 10 ppm [4] | Percentage of LBF killed at 10 ppm [3] | other results
1 | CCC1CCCC(OC2CCC(N(C)C)C(C)O2)C(C)C(=O)C2=CC3C4CC(OC5OC(C)C(OC)C(OC)C5OC)CC4[C@]4(C)O[C@@H]4C3C2CC(=O)O1 (stereo partly drawn) [Example F8b, (5R,6S)-Epoxy Spinosyn D] | 100% | 100% | – | % MORTALITY [2]: 90%; Percentage of LBF killed at 100 ppm [3]: 100%
2 | 5,6-Dihydro Spinosyn A 17-Psa [Example F20] | – | – | – | % MORTALITY ([5]; RATE 400 (ppm), 6 days): 100%
3 | CC[C@H]1CCC[C@H](O[C@H]2CC[C@H](N(C)C)[C@@H](C)O2)[C@@H](C)C(=O)C2=C[C@H]3[C@@H]4C[C@H](O[C@@H]5O[C@@H](C)[C@H](OC)[C@@H](OC)[C@H]5OC)C[C@H]4[C@@H](Br)[C@H](OC(C)=O)[C@H]3[C@@H]2CC(=O)O1 [Example F4b, (5R,6R)-5-Acetoxy-6-bromo-5,6-dihydro Spinosyn A] | – | 60% | < 50% | mortality at 400 µg/mL ([1]; RATE 400 (ppm), 6 days): 100%
4 | CCC1CCCC(OC2CCC(N(C)C)C(C)O2)C(C)C(=O)C2=CC3C4CC(OC5OC(C)C(OC)C(OC)C5OC)CC4[C@@H]4O[C@@H]4C3C2CC(=O)O1 (stereo partly drawn) [Example F7b, (5R,6S)-Epoxy Spinosyn A] | 100% | 100% | 100% | –
5 | CC[C@H]1CCC[C@H](O[C@H]2CC[C@H](N(C)C)[C@@H](C)O2)[C@@H](C)C(=O)C2=C[C@H]3[C@@H]4C[C@H](O[C@@H]5O[C@@H](C)[C@H](OC)[C@@H](OC)[C@H]5OC)C[C@H]4[C@@H](O)[C@@H](O)[C@H]3[C@@H]2CC(=O)O1 [Example F2, (5S,6R)-5,6-Dihydroxy-5,6-dihydro Spinosyn A] | – | <50% | <50% | mortality at 400 µg/mL ([1]; RATE 400 (ppm), 6 days): 100%
6 | CCCOC1C(OC2CC3CCC4C5CC(=O)OC(CC)CCCC(OC6CCC(N(C)C)C(C)O6)C(C)C(=O)C5=CC4C3C2)OC(C)C(OC)C1OC (stereo not drawn) [Example A8, 5,6-Dihydro-2'-O-n-propyl Spinosyn H] | 100% | – | – | % MORTALITY [2]: 100%; Percentage of ASF killed at 100 ppm [4]: 100%
7 | CC[C@H]1CCC[C@H](O[C@H]2CC[C@H](N(C)C)[C@@H](C)O2)[C@@H](C)C(=O)C2=C[C@H]3[C@@H]4C[C@H](O[C@@H]5O[C@@H](C)[C@H](OC)[C@@H](OC)[C@H]5OC)C[C@H]4[C@H]4OC(=O)O[C@H]4[C@H]3[C@@H]2CC(=O)O1 [Example F3, (5S,6R)-Spinosyn A carbonate] | – | <50% | <50% | % MORTALITY [1, 7]: 24%
8 | CC[C@H]1CCC[C@H](O[C@H]2CC[C@H](N(C)C)[C@@H](C)O2)[C@@H](C)C(=O)[C@H]2C[C@@H]3[C@@H](CC[C@@H]4C[C@@H](O[C@@H]5O[C@@H](C)[C@H](OC)[C@@H](OC)[C@H]5OC)C[C@H]43)[C@@H]2CC(=O)O1 [Example D1, (14S)-5,6,13,14-Tetrahydro Spinosyn A] | – | 100% | <50% | % MORTALITY ([1]; RATE 80 (unit not given), 8640 min): 90%
9 | CCC1CCCC(OC2CCC(N(C)C)C(C)O2)C(C)C(=O)C2=CC3C4CC(OC5OC(C)C(OC)C(OC)C5OC)CC4[C@@H](Br)[C@H](OCCO)C3C2CC(=O)O1 (stereo partly drawn) [Example F1, (5R,6R)-5-(2-Hydroxyethoxy)-6-bromo Spinosyn A] | 100% | 60% | 90% | –
10 | (5R,6R)-5,6-dibromo-4''-keto Spinosyn A [Example F11a] | – | – | – | % MORTALITY ([5]; RATE 56 (unit not given)): 80%
11 | CC[C@H]1CCC[C@H](O[C@H]2CC[C@H](N(C)C)[C@@H](C)O2)[C@@H](C)C(=O)C2=C[C@H]3[C@@H]4C[C@H](O[C@@H]5O[C@@H](C)[C@H](OC)[C@@H](OC)[C@H]5OC)C[C@H]4CC[C@H]3[C@@H]2CC(=O)O1 [Example F6, 5,6-Dihydro Spinosyn A] | – | 100% | – | % MORTALITY [1, 7]: 100%; mortality at 400 µg/mL [2]: 100%; Percentage of LBF killed at 100 ppm [3]: 100%
12 | CCC1CCCC(O)C(C)C(=O)C2=CC3C4CC(OC5OC(C)C(OC)C(OC)C5OC)CC4C4OC4C3C2CC(=O)O1 [Example E3, (5S,6R)-5,6-Epoxy Spinosyn A 17-Psa] | – | – | – | % MORTALITY [6]: 100%
13 | CCC1CCCC(OC2CCC(N(C)C)C(C)O2)C(C)C(=O)C2=CC3C4CC(OC5OC(C)C(OC)C(OC)C5OC)CC4[C@H]4O[C@H]4C3C2CC(=O)O1 (stereo partly drawn) [Example F7a, (5S,6R)-5,6-Epoxy Spinosyn A] | 100% | 100% | 90% | % MORTALITY [2]: 90%
14 | CC[C@H]1CCC[C@H](O[C@H]2CC[C@H](N(C)C)[C@@H](C)O2)[C@@H](C)C(=O)C2=C[C@H]3[C@@H]4C[C@H](O[C@@H]5O[C@@H](C)[C@H](OC)[C@@H](OC)[C@H]5OC)C[C@H]4[C@H](Br)[C@@H](OC(C)=O)[C@H]3[C@@H]2CC(=O)O1 [Example F4a, (5S,6S)-5-Acetoxy-6-bromo Spinosyn A] | – | 90% | <50% | mortality at 400 µg/mL ([1]; RATE 400 (ppm), 6 days): 100%
15 | CCOC1C(OC2CC3CCC4C5CC(=O)OC(CC)CCCC(OC6CCC(N(C)C)C(C)O6)C(C)C(=O)C5=CC4C3C2)OC(C)C(OC)C1OC (stereo not drawn) [Example A7, 5,6-Dihydro-2'-O-ethyl Spinosyn H] | 100% | – | – | % MORTALITY [2]: 100%; Percentage of ASF killed at 100 ppm [4]: 100%
16 | CCCOC1C(OC)C(C)OC(OC2CC3CCC4C5CC(=O)OC(CC)CCCC(OC6CCC(N(C)C)C(C)O6)C(C)C(=O)C5=CC4C3C2)C1OC.CCCOC1C(OC)C(C)OC(OC2CC3CCC4C5CC(=O)OC(CC)CCCC(OC6CCC(N(C)C)C(C)O6)C(C)C(=O)C5=CC4C3C2)C1OC.O=C(O)CCCC(=O)O (stereo not drawn) [Example A6, 5,6-Dihydro-3'-O-n-propyl Spinosyn J Hemiglutarate salt] | 100% | – | – | % MORTALITY [2]: 100%; Percentage of ASF killed at 100 ppm [4]: 100%
17 | CC[C@H]1CCC[C@H](O)[C@@H](C)C(=O)C2=C[C@H]3[C@@H]4C[C@H](O[C@@H]5O[C@@H](C)[C@H](OC)[C@@H](OC)[C@H]5OC)C[C@H]4[C@@H](Br)[C@H](OCCO)[C@H]3[C@@H]2CC(=O)O1 [Example E1, (5R,6R)-5-(2-Hydroxyethoxy)-6-bromo Spinosyn A 17-Psa] | – | – | <50% | mortality at 400 µg/mL ([1]; RATE 400 (ppm), 6 days): 100%; mortality at 400 µg/mL [2]: 60%
